Test results reported in patent publication US7875587B2, “Peptide analogues of GIP for treatment of diabetes, insulin resistance and obesity” (UUTECH Limited, priority 2004, dated 2011).

Experiments:
[1] = system: ob/ob mice; assay: Acute metabolic and dose-response effects with glucose in 18 h fasted ob/ob mice; assay type: in vivo, mouse
Method: Animals. Obese diabetic (ob/ob) mice derived from the colony maintained at Aston University, UK were used at 12-17 weeks of age. The genetic background and characteristics of the colony used have been outlined in detail elsewhere (Bailey, C. J. et al., 1982, Int. J. Obesity 6:11-21; Gault, V. A. et al., 2003, J. Endocrinol. 176: 133-141). Animals were housed in an air-conditioned room at 22±2° C. with a 12 hours light: 12 hours dark cycle. Drinking water and standard rodent maintenance diet (Trouw Nutrition, Cheshire, UK) were freely available. All test solutions were administered by i.p. injection in a final volume of 5 ml/kg bw. Blood was collected from the cut tip of the tail vein of conscious mice into chilled fluoride/heparin microcentrifuge tubes immediately prior to injection and at the times indicated in the Figures. Plasma was separated using a Beckman microcentrifuge (Beckman Instruments, UK) at 13,000 g for 30 second and stored at −20° C. prior to glucose and insulin determinations. All animal experiments were carried out in accordance with the UK Animals (Scientific Procedures) Act 1986.
Metabolic and dose-response effects of GIP and N-AcGIP(LysPAL) analogues (at 6.25-25 nmoles/kg bw) following glucose administration (18 mmoles/kg bw) were examined in mice fasted for 18 hours. […] Food intake and body weight were recorded daily. Plasma glucose and insulin concentrations were monitored at 2-6 day intervals. At 14 days, groups of animals were used to evaluate intraperitoneal glucose tolerance (18 mmoles/kg) and insulin sensitivity (50 U/kg). In a separate series, two experimental protocols were employed to examine the possibility of GIP receptor desensitization after 14 days treatment. […] At the end of the 14-day treatment period, pancreatic tissues were excised for measurement of insulin following extraction with 5 ml/g ice-cold acid ethanol (75% ethanol, […], 1.5% HCl). Whole blood was taken for determination of glycated hemoglobin.
Biochemical analyses. Plasma glucose was assayed by an automated glucose oxidase procedure (Stevens, J. F., 1971, Clin. Chem. Acta 32:199-201) using a Beckman Glucose Analyser II (Beckman, Galway, Ireland). Plasma insulin was determined by dextran-charcoal RIA as described previously (Flatt, P. R. et al., 1981, Diabetologia 20: 573-577). Glycated hemoglobin was determined using cation-exchange columns (Sigma, Poole, Dorset, UK) with measurement of absorbance (415 nm) in wash and eluting buffers using a VersaMax microplate spectrophotometer (Molecular Devices, Wokingham, Berkshire, UK).
Statistics. Results are expressed as mean±SEM. Data were compared using the unpaired Student's t-test. Where appropriate, data were compared using repeated measures ANOVA or one-way ANOVA, followed by the Student-Newman-Keuls post hoc test. Incremental areas under plasma glucose and insulin curves (AUC) were calculated using a computer-generated program employing the trapezoidal rule (Burington, R. S., 1973, Handbook of Mathematical Tables and Formulae, McGraw-Hill, New York) with baseline subtraction.

[2] = target: T1, human GIP receptor (Homo sapiens, UniProt P48546); assay: Intracellular cyclic AMP production in GIP-receptor transfected CHL fibroblasts; assay type: cell-based
T1 construct: expressed in transfected cells; host or cells: Chinese hamster lung (CHL) fibroblasts, stably transfected
T1 sequence (P48546 22-466): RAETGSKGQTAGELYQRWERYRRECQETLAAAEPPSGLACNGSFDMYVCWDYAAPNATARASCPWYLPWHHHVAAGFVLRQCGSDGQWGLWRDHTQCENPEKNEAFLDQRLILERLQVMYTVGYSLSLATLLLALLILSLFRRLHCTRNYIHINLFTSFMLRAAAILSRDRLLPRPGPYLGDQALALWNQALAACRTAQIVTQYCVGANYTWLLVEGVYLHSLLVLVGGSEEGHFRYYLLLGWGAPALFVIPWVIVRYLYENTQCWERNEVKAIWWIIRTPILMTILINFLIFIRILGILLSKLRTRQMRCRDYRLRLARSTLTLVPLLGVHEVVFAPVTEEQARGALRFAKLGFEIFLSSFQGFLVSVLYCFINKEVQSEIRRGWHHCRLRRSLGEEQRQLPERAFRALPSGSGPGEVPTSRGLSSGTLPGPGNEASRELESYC
Method: In vitro biological activity. […] In brief, CHL cells were seeded into 12-well plates (Nünc, Roskilde, Denmark) at a density of 10^5 cells per well and allowed to grow for 48 hours before being loaded with tritiated adenine (2 μCi; TRK311; Amersham, Buckinghamshire, UK). The cells were then incubated at 37° C. for 6 hours in 1 ml DMEM supplemented with 0.5% (w/v) BSA and subsequently washed twice with HBS buffer (pH 7.4). […] The medium was subsequently removed and the cells lysed with 1 ml of 5% TCA containing 0.1 mmol/l unlabelled cyclic AMP and 0.1 mmol/l unlabelled ATP.

[3] = system: BRIN-BD11 cells; assay: Insulin release from clonal pancreatic BRIN-BD11 cells (Example 6); assay type: cell-based; settings: 5.6 mmol/l glucose, 20 minutes incubation
Method: Cells and cell culture. Chinese hamster lung (CHL) fibroblasts stably transfected with the human GIP receptor (Gremlich, S. et al., 1995, Diabetes 44: 1202-1208) were cultured in DMEM tissue culture medium containing 10% (v/v) FBS, 1% (v/v) antibiotics (100 U/ml penicillin, 0.1 mg/ml streptomycin). Clonal pancreatic BRIN-BD11 cells (McClenaghan, N. H. et al., 1996, Diabetes 45: 1132-1140) were cultured using RPMI-1640 culture medium containing 10% (v/v) FBS, 1% (v/v) antibiotics (100 U/ml penicillin, 0.1 mg/ml streptomycin) and 11.1 mmol/l glucose. Cells were maintained at 37° C. in an atmosphere of 5% CO2 and 95% air using an LEEC incubator (Laboratory Technical Engineering, Nottingham, UK).
Insulin-release studies were carried out using clonal pancreatic BRIN-BD11 cells as described previously (O'Harte, F. P. M. et al., 2002, Diabetologia 45: 1281-1291). Briefly, BRIN-BD11 cells were seeded into 24-well plates at a density of 10^5 cells per well, and allowed to attach overnight at 37° C. Acute tests for insulin release were preceded by 40 minutes pre-incubation at 37° C. in 1.0 ml Krebs Ringer bicarbonate buffer supplemented with 1.1 mmol/l glucose. Test incubations were performed in the presence of 5.6 mmol/l glucose with a range of concentrations (10^−13 to 10^−6 mol/l) of GIP and GIP analogues. After 20 minutes incubation, the buffer was removed from each well and aliquots (200 μl) used for measurement of insulin.

[4] = target: T2, DPP IV (Sus scrofa, UniProt P22411); assay: DPP IV degradation studies of fatty acid derivatised GIP analogues; assay type: in vitro ADME, porcine; settings: pig, isolated enzyme dpp iv, pH 7.8, incubation with DPP IV, read-out: % Intact peptide remaining after time (hours)
T2 construct: purchased Sigma (Poole, Dorset, UK)
Method: (§1) DPP IV degradation studies. GIP and fatty acid derivatised GIP analogues were incubated at 37° C. with purified porcine dipeptidylpeptidase IV (5 mU in 50 mmol/l triethanolamine-HCl; pH 7.8) for 0, 2, 4, 8 and 24 hours (final peptide concentration 2 mmol/l). The reactions were subsequently terminated by addition of 10% (v/v) TFA/water and the reaction products separated using HPLC. […] HPLC peak area data were used to calculate % intact peptide remaining throughout the incubation.

[5] = target: T3, purified porcine dipeptidylpeptidase IV (Sus scrofa, UniProt P22411); assay: as above; assay type: in vitro ADME; settings: incubation with DPP IV
T3 construct: purchased Sigma (Poole, Dorset, UK)
Method: as §1

T2 sequence (P22411 whole entry): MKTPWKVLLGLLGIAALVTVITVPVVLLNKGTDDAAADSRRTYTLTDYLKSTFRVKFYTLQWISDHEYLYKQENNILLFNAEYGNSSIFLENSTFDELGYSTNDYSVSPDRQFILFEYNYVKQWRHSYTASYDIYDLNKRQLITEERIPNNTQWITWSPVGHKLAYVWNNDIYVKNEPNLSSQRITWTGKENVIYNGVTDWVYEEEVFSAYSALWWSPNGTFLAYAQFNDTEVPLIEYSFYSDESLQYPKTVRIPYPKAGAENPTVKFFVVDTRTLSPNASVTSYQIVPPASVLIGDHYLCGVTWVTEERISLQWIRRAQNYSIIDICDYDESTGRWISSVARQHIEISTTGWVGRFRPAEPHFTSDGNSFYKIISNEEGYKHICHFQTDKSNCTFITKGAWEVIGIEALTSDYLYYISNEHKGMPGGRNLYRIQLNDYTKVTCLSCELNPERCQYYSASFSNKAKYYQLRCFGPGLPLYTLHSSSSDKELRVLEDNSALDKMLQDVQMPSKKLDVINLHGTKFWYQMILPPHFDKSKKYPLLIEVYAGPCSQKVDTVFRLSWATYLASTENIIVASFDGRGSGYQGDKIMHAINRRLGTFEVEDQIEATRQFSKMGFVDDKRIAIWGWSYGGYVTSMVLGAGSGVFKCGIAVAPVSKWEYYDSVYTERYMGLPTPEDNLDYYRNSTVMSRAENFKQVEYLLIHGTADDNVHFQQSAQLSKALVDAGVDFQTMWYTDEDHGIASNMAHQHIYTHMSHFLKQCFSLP
T3 sequence (P22411 whole entry): as above

CCCCCCCCCCCCCCCC(=O)NCCCC[C@H](NC(=O)[C@H](CC(=O)O)NC(=O)[C@H](CCSC)NC(=O)[C@H](C)NC(=O)[C@@H](NC(=O)[C@H](CO)NC(=O)[C@H](Cc1ccc(O)cc1)NC(=O)[C@H](CC(=O)O)NC(=O)[C@H](CO)NC(=O)[C@@H](NC(=O)[C@H](Cc1ccccc1)NC(=O)[C@@H](NC(=O)CNC(=O)[C@H](CCC(=O)O)NC(=O)[C@H](C)NC(=O)[C@H](Cc1ccc(O)cc1)NC(C)=O)[C@@H](C)O)[C@@H](C)CC)[C@@H](C)CC)C(=O)N[C@H](C(=O)N[C@@H](Cc1c[nH]cn1)C(=O)N[C@@H](CCC(N)=O)C(=O)N[C@@H](CCC(N)=O)C(=O)N[C@@H](CC(=O)O)C(=O)N[C@@H](Cc1ccccc1)C(=O)N[C@H](C(=O)N[C@@H](CC(N)=O)C(=O)N[C@@H](Cc1c[nH]c2ccccc12)C(=O)N[C@@H](CC(C)C)C(=O)N[C@@H](CC(C)C)C(=O)N[C@@H](C)C(=O)N[C@@H](CCC(N)=O)C(=O)N[C@@H](CCCCN)C(=O)NCC(=O)N[C@@H](CCCCN)C(=O)N[C@@H](CCCCN)C(=O)N[C@@H](CC(N)=O)C(=O)N[C@@H](CC(=O)O)C(=O)N[C@@H](Cc1c[nH]c2ccccc12)C(=O)N[C@@H](CCCCN)C(=O)N[C@@H](Cc1c[nH]cn1)C(=O)N[C@@H](CC(N)=O)C(=O)N[C@H](C(=O)N[C@H](C(=O)N[C@@H](CCC(N)=O)C(=O)O)[C@@H](C)O)[C@@H](C)CC)C(C)C)[C@@H](C)CC [N-AcGIP(LysPAL^16)]
enhancement of overall glucose-mediated insulin release (AUC) compared to native GIP ([1]; 25 nmoles/kg i.p. with glucose): 1.5 fold
overall glucose excursion compared to native GIP ([1]; 25 nmoles/kg i.p. with glucose): decreased the overall glucose excursion
overall glucose excursion (glucose AUC) compared to glucose alone ([1]; 25 nmoles/kg i.p. with glucose 18 mmoles/kg, 0-60 min): significantly lowered glucose AUC
EC50 [2]: 12.1 nM
insulin secretion compared to control [3]: significantly stimulated glucose-induced insulin secretion
remaining at 2 h, 2 mmol/l ([4]; 2 h): 100%
remaining at 8 h, 2 mmol/l ([4]; 8 h): 100%
remaining at 24 h, 2 mmol/l ([4]; 24 h): 100%
% Intact peptide remaining after time (hours) ([5]; 0 h): 100%
% Intact peptide remaining after time (hours) ([5]; 24 h): remained completely intact
